Reference: US12459972B2, “Protease-activated contrast agents for in vivo imaging” (THE BOARD OF TRUSTEES OF THE LELAND STANFORD JUNIOR …, priority 2015, dated 2025)

Tests used:
recombinant cathepsin L = recombinant cathepsin L (Homo sapiens, UniProt P07711); experiment: Enzyme kinetics / turnover of quenched substrates with recombinant cathepsin L; type: biochemical; conditions: for Km / kcat: recombinant cathepsin L, 5 nM enzyme; for Km: 50 mM citrate buffer pH 5.5, 37° C., average of three replicates ± standard error; for kcat: citrate buffer pH 5.5, 37° C.; for increase in catalytic efficiency, spacer n=6 relative to n=2 analog: Cat L, 6CQ vs 2CQ, 6QC vs 2QC
Chain of recombinant cathepsin L (P07711 114-333, species assumed): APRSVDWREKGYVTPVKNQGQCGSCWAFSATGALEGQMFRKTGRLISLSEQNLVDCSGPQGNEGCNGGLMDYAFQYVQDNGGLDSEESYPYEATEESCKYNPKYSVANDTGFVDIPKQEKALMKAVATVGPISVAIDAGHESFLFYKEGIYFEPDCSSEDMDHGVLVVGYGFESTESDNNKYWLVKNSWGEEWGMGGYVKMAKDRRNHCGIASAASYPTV
Method: (§1) The activity and selectivity of all 6 substrates were determined by monitoring the turnover curves of each internally quenched probe in the presence of various recombinant cysteine proteases, specifically cathepsins L, S, K, B, and V. Equal concentration (5 nM) of each enzyme was incubated with the different probes in 50 mM citrate buffer (pH=5.5, 5 mM DTT, 0.1% triton X, 0.5% CHAPS) at 37° C. The exact concentration of the various cathepsins used were confirmed by active site titration (Boucher et al. (2014) Methods Mol. Biol. 1133:3-39) using the covalent cysteine protease inhibitor ZFK-PMK and the commercial substrates Z-VVR-AMC for cathepsins S, L, B, and V, or Z-KR-AMC for cathepsin K. The rate of increase in Cy5 fluorescence (which is indicative of probe cleavage by cathepsins) was measured for each of the probes.

recombinant cathepsin V = recombinant cathepsin V (Homo sapiens, UniProt O60911); experiment: Enzyme kinetics / turnover of quenched substrates with recombinant cathepsin V; type: biochemical; conditions: for Km / kcat: recombinant cathepsin V, 5 nM enzyme; for Km: 50 mM citrate buffer pH 5.5, 37° C., average of three replicates ± standard error; for kcat: citrate buffer pH 5.5, 37° C.; for increase in efficiency, spacer n=6 relative to n=2 analog: Cat V, nCQ and nQC series respectively
Chain of recombinant cathepsin V (O60911 114-334): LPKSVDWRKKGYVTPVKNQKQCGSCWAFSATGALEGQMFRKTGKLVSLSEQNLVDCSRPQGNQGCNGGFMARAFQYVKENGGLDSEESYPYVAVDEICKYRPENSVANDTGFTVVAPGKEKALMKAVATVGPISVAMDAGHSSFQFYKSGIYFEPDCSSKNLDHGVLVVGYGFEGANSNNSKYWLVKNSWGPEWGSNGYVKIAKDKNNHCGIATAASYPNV
Method: as §1

[1] = test system: 4T1 tumors (tumor associated cysteine cathepsins); experiment: Non-invasive optical imaging with Cy5 substrates, syngeneic orthotopic 4T1 mouse model of breast cancer; type: in vivo; conditions: for Cy5 fluorescence in frozen tumor sections: 24-hour endpoint, histology; for overall absolute fluorescence intensity in the tumors compared to non-lysosomotropic substrates 2CQ and 6CQ: intravenous, non-invasive imaging
Method: In this model 4T1 cells are inoculated into the left number 1 and 10 mammary fat pad of mice to generate tumors. In order to determine the impact of the LLE, imaging signals of lysosomotropic probes 2QC (compound 5) and 6QC (compound 7) were directly compared to those of the non-lysosomotropic analogues 2CQ (compound 2) and 6CQ (compound 4). Substrates were administered to tumor-bearing mice intravenously, and mice were imaged at various time points following the administration. […] The intensity of the fluorescent signal reached a maximum at 4 hour after administration, followed by a decrease in the signal intensity (FIG. 4B). […] Furthermore, the intensity of the signal remained constant over a period of 24 hours in the tumors of mice administered with the LLE substrates, whereas the signals from the non-LLE substrates were almost completely cleared after 24 hours (FIGS. 4A and 4B). A similar trend was observed by ex vivo imaging of tumors excised from mice that had been euthanized after 4 hours and after 24 hours (FIG. 4C).
In order to determine which populations of cells are responsible for activating the quenched substrate probes in vivo, immunofluorescence staining on frozen sliced sections of tumors isolated from mice injected with each substrate was performed using a macrophage-selective marker CD68. The Cy5 signal of the substrate co-localized to only CD68-positive cells (macrophages), with no signals observed in the 4T1 tumor cell (FIG. 5A). Moreover, Cy5 fluorescence was only observed in tissues from mice that received nQC substrates and not in tissues from mice treated with nCQ substrates (FIG. 5B).

[2] = test system: 4T1 tumors (tumor associated cysteine cathepsins); experiment: Non-invasive imaging with NIR probes in 4T1 breast cancer model, IVIS-spectrum; type: in vivo, mouse; conditions: 24 hour time course
Text: The optimized substrate probes described above have therefore been tested in a clinically relevant model systems of FGS. […] In these compounds, the Cy5 chromophore was strategically substituted with a similar molecular weight near infrared (NIR) DyLight 780-B1 fluorophore. The compound with a linker having n=6 was chosen based on the optimal turnover numbers by cathepsins in vitro. The QSY21-sulfo quencher was also substituted with IRDye QC-1, which is a dark NIR quencher (FIG. 6A). In addition to being detectable on the camera system of the da Vinci robot, the emission wavelength of the NIR dye (absorption/emission maxima of 783/799 nm) falls within a window with low overall background and will therefore enhance tissue penetration and improve signal to background ratio during imaging. Richards-Kortum and Sevick-Muraca (1996) Annu. Rev. Phys. Chem. 47:555-606. The NIR probes were first analyzed as contrast agents in the 4T1 breast cancer model described above, using the IVIS-spectrum imaging system. Following systemic administration of the contrast agents, mice were imaged non-invasively every hour for 4 hours, and then at 6, 8, 12 and 24 hours post injection of the substrate. […] The intensity of the fluorescence signal in the tumors increased rapidly in mice injected with both types of probes, and it eventually peaked between 4 to 6 hours. […]

**Q.** What does the source list for CC[N+]1=C(C=CC=CC=C2N(CCCCCC(=O)NCCCC[C@H](NC(=O)[C@H](Cc3ccccc3)NC(=O)OCc3ccccc3)C(=O)NCCNC(=O)C3CCN(S(=O)(=O)c4ccccc4-c4c5ccc(=[N+]6CCc7cc(S(=O)(=O)O)ccc76)cc-5oc5cc(N6CCc7cc(S(=O)(=O)O)ccc76)ccc45)CC3)c3ccc(S(=O)(=O)O)cc3C2(C)C)C(C)(C)c2cc(S(=O)(=O)O)ccc21 [2CQ]?
**A.** Km (recombinant cathepsin L): 6.4 ± 0.8 µM; kcat (recombinant cathepsin L): 0.141 s⁻¹; Km (recombinant cathepsin V): 5 ± 0.4 µM; kcat (recombinant cathepsin V): 0.014 s⁻¹

**Q.** Which Km (recombinant cathepsin L) does the source give for CC[N+]1=C(C=CC=CC=C2N(CCCCCC(=O)NCCNC(=O)[C@H](CCCCNC(=O)C3CCN(S(=O)(=O)c4ccccc4-c4c5ccc(=[N+]6CCc7cc(S(=O)(=O)O)ccc76)cc-5oc5cc(N6CCc7cc(S(=O)(=O)O)ccc76)ccc45)CC3)NC(=O)[C@H](Cc3ccccc3)NC(=O)OCc3ccccc3)c3ccc(S(=O)(=O)O)cc3C2(C)C)C(C)(C)c2cc(S(=O)(=O)O)ccc21 [2QC] here?
**A.** 6.5 ± 1.5 µM

**Q.** And the kcat (recombinant cathepsin L)?
**A.** 0.095 s⁻¹

**Q.** And the Km (recombinant cathepsin V)?
**A.** 0.9 ± 0.1 µM

**Q.** And the kcat (recombinant cathepsin V)?
**A.** 0.008 s⁻¹

**Q.** And the “Cy5 fluorescence in frozen tumor sections” value [1]?
**A.** observed

**Q.** What about the “overall absolute fluorescence intensity in the tumors compared to non-lysosomotropic substrates 2CQ and 6CQ” value [1] of the same molecule?
**A.** higher and brighter

**Q.** Which results are given for CC[N+]1=C(C=CC=CC=C2N(CCCCCC(=O)NCCCC[C@H](NC(=O)[C@H](Cc3ccccc3)NC(=O)OCc3ccccc3)C(=O)NCCCCNC(=O)C3CCN(S(=O)(=O)c4ccccc4-c4c5ccc(=[N+]6CCc7cc(S(=O)(=O)O)ccc76)cc-5oc5cc(N6CCc7cc(S(=O)(=O)O)ccc76)ccc45)CC3)c3ccc(S(=O)(=O)O)cc3C2(C)C)C(C)(C)c2cc(S(=O)(=O)O)ccc21 [4CQ]?
**A.** Km (recombinant cathepsin L): 4.6 ± 0.7 µM; kcat (recombinant cathepsin L): 0.283 s⁻¹; Km (recombinant cathepsin V): 3.4 ± 0.3 µM; kcat (recombinant cathepsin V): 0.073 s⁻¹

**Q.** What does the source list for CC[N+]1=C(C=CC=CC=C2N(CCCCCC(=O)NCCCCNC(=O)[C@H](CCCCNC(=O)C3CCN(S(=O)(=O)c4ccccc4-c4c5ccc(=[N+]6CCc7cc(S(=O)(=O)O)ccc76)cc-5oc5cc(N6CCc7cc(S(=O)(=O)O)ccc76)ccc45)CC3)NC(=O)[C@H](Cc3ccccc3)NC(=O)OCc3ccccc3)c3ccc(S(=O)(=O)O)cc3C2(C)C)C(C)(C)c2cc(S(=O)(=O)O)ccc21 [4QC]?
**A.** Km (recombinant cathepsin L): 8.6 ± 1.3 µM; kcat (recombinant cathepsin L): 0.396 s⁻¹; Km (recombinant cathepsin V): 4.8 ± 0.2 µM; kcat (recombinant cathepsin V): 0.188 s⁻¹

**Q.** Which results are given for CC[N+]1=C(C=CC=CC=C2N(CCCCCC(=O)NCCCC[C@H](NC(=O)[C@H](Cc3ccccc3)NC(=O)OCc3ccccc3)C(=O)NCCCCCCNC(=O)C3CCN(S(=O)(=O)c4ccccc4-c4c5ccc(=[N+]6CCc7cc(S(=O)(=O)O)ccc76)cc-5oc5cc(N6CCc7cc(S(=O)(=O)O)ccc76)ccc45)CC3)c3ccc(S(=O)(=O)O)cc3C2(C)C)C(C)(C)c2cc(S(=O)(=O)O)ccc21 [6CQ]?
**A.** increase in catalytic efficiency, spacer n=6 relative to n=2 analog (recombinant cathepsin L): 4 fold; Km (recombinant cathepsin L): 5.4 ± 0.5 µM; kcat (recombinant cathepsin L): 0.487 s⁻¹; increase in efficiency, spacer n=6 relative to n=2 analog (recombinant cathepsin V): 8 fold; Km (recombinant cathepsin V): 6.8 ± 0.4 µM; kcat (recombinant cathepsin V): 0.164 s⁻¹

**Q.** How did the “clearance rate and signal in tumors relative to the non-LLE substrate” value [2] turn out when CCN(CC)c1ccc2c(C(C)(C)C)cc(C=CC=CC=C3N(CCCCCC(=O)NCCCCCCNC(=O)[C@H](CCCCNC(=O)CCCCCN4C(=CC=C5CCCC(C=CC6=[N+](CCCS(=O)(=O)O)c7ccc(N(CCCS(=O)(=O)O)CCCS(=O)(=O)O)cc7C6(C)C)=C5Cl)C(C)(C)c5c4ccc4cc(S(=O)(=O)O)ccc54)NC(=O)[C@H](Cc4ccccc4)NC(=O)OCc4ccccc4)c4ccc(S(=O)(=O)O)cc4C3(C)C)[o+]c2c1 [6QCNIR] was run?
**A.** slower clearance rate and brighter signal

**Q.** How did the “increase in catalytic efficiency, spacer n=6 relative to n=2 analog” value (recombinant cathepsin L) turn out when CC[N+]1=C(C=CC=CC=C2N(CCCCCC(=O)NCCCCCCNC(=O)[C@H](CCCCNC(=O)C3CCN(S(=O)(=O)c4ccccc4-c4c5ccc(=[N+]6CCc7cc(S(=O)(=O)O)ccc76)cc-5oc5cc(N6CCc7cc(S(=O)(=O)O)ccc76)ccc45)CC3)NC(=O)[C@H](Cc3ccccc3)NC(=O)OCc3ccccc3)c3ccc(S(=O)(=O)O)cc3C2(C)C)C(C)(C)c2cc(S(=O)(=O)O)ccc21 [6QC] was run?
**A.** 6 fold

**Q.** What about the Km (recombinant cathepsin L) of the same molecule?
**A.** 5.3 ± 0.8 µM

**Q.** What about the kcat (recombinant cathepsin L) of the same molecule?
**A.** 0.458 s⁻¹

**Q.** What about the “increase in efficiency, spacer n=6 relative to n=2 analog” value (recombinant cathepsin V) of the same molecule?
**A.** 4 fold

**Q.** What about the Km (recombinant cathepsin V) of the same molecule?
**A.** 4.4 ± 0.2 µM

**Q.** And the kcat (recombinant cathepsin V)?
**A.** 0.150 s⁻¹

**Q.** And the “Cy5 fluorescence in frozen tumor sections” value [1]?
**A.** observed

**Q.** What about the “overall absolute fluorescence intensity in the tumors compared to non-lysosomotropic substrates 2CQ and 6CQ” value [1] of the same molecule?
**A.** higher and brighter
